Laboratory results reported in the supplement of paper PMC9663587.

Legend:
[1] = compound: T1, CN(C)C(=O)c1cc2cnc(Nc3ccc(N4CCNCC4)cn3)nc2n1C1CCCC1 [LEE011/Ribociclib]; assay: increase in dead-cell fraction, 72 h; higher = more death;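 also: breast cancer cell lines in 384-well plates, stained with Hoechst plus LIVE/DEAD far red dye and imaged, cells above an LDR intensity threshold counted dead, Hoechst-negative corpses included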
[2] = compound: T2, CN1CC[C@H](c2c(O)cc(O)c3c(=O)cc(-c4ccccc4Cl)oc23)[C@H](O)C1 [Flavopiridol]; assay: as above
[3] = compound: CC(=O)c1c(C)c2cnc(Nc3ccc(N4CCNCC4)cn3)nc2n(C2CCCC2)c1=O; assay: as above
[4] = compound: CCN1CCN(Cc2ccc(Nc3ncc(F)c(-c4cc(F)c5nc(C)n(C(C)C)c5c4)n3)nc2)CC1; assay: as above
[5] = compound: T1, LEE011/Ribociclib; assay: GR value, 72 h; higher = faster growth (1 = untreated, <0 = killing);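 also: breast cancer and non-malignant breast epithelial lines, nine half-log doses, viable cells counted by Hoechst and LIVE/DEAD dye imaging versus time-zero plates and DMSO controls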
[6] = compound: T2, Flavopiridol; assay: as above
[7] = compound: CCOc1cc2ncc(C#N)c(Nc3ccc(OCc4ccccn4)c(Cl)c3)c2cc1NC(=O)/C=C/CN(C)C [Neratinib/HKI272]; assay: as above
[8] = compound: CCc1cnn2c(NCc3ccc[n+]([O-])c3)cc(N3CCCC[C@H]3CCO)nc12; assay: as above
[9] = compound: CC(=O)c1c(C)c2cnc(Nc3ccc(N4CCN(CCOCCOCCOCCNC(=O)COc5cccc6c5C(=O)N(C5CCC(=O)NC5=O)C6=O)CC4)cn3)nc2n(C2CCCC2)c1=O [BSJ-03-123]; assay: as above
[10] = compound: CN(C)C/C=C/C(=O)Nc1ccc(C(=O)Nc2cccc(Nc3ncc(Cl)c(-c4c[nH]c5ccccc45)n3)c2)cc1 [THZ1]; assay: as above
[11] = compound: CC(=O)c1c(C)c2cnc(Nc3ccc(N4CCNCC4)cn3)nc2n(C2CCCC2)c1=O; assay: as above
[12] = compound: CCN1CCN(Cc2ccc(Nc3ncc(F)c(-c4cc(F)c5nc(C)n(C(C)C)c5c4)n3)nc2)CC1; assay: as above

ZR751
increase in dead-cell fraction ([1]; 0.001 µM): 0.001 | increase in dead-cell fraction ([1]; 0.003162 µM): 0.0005 | increase in dead-cell fraction ([1]; 0.01 µM): 0.0005 | increase in dead-cell fraction ([1]; 0.03162 µM): -0.0023 | increase in dead-cell fraction ([1]; 0.1 µM): 0.0065 | increase in dead-cell fraction ([1]; 0.3162 µM): 0.0036 | increase in dead-cell fraction ([1]; 1 µM): 0.0073 | increase in dead-cell fraction ([1]; 3.162 µM): 0.0082 | increase in dead-cell fraction ([1]; 10 µM): 0.0077 | increase in dead-cell fraction ([2]; 0.0001 µM): -0.0019 | increase in dead-cell fraction ([2]; 0.0003162 µM): -0.0035 | increase in dead-cell fraction ([2]; 0.001 µM): 0.0015 | increase in dead-cell fraction ([2]; 0.003162 µM): 0.0014 | increase in dead-cell fraction ([2]; 0.01 µM): -0.0008 | increase in dead-cell fraction ([2]; 0.03162 µM): -0.0022 | increase in dead-cell fraction ([2]; 0.1 µM): 0.0001 | increase in dead-cell fraction ([2]; 0.3162 µM): 0.0129 | increase in dead-cell fraction ([2]; 1 µM): 0.144 | increase in dead-cell fraction ([3]; 0.0003162 µM): -0.0023 | increase in dead-cell fraction ([3]; 0.001 µM): -0.0015 | increase in dead-cell fraction ([3]; 0.003162 µM): -0.0035 | increase in dead-cell fraction ([3]; 0.01 µM): 0.0001 | increase in dead-cell fraction ([3]; 0.03162 µM): 0.002 | increase in dead-cell fraction ([3]; 0.1 µM): -0.0025 | increase in dead-cell fraction ([3]; 0.3162 µM): 0.0083 | increase in dead-cell fraction ([3]; 1 µM): 0.008 | increase in dead-cell fraction ([3]; 3.162 µM): 0.0189 | increase in dead-cell fraction ([4]; 0.001 µM): 0.0013 | increase in dead-cell fraction ([4]; 0.003162 µM): 0.0092 | increase in dead-cell fraction ([4]; 0.01 µM): 0.0042 | increase in dead-cell fraction ([4]; 0.03162 µM): 0.0075 | increase in dead-cell fraction ([4]; 0.1 µM): 0.0148 | increase in dead-cell fraction ([4]; 0.3162 µM): 0.021 | increase in dead-cell fraction ([4]; 1 µM): 0.0189 | increase in dead-cell fraction ([4]; 3.162 µM): 0.0151 | increase in dead-cell fraction ([4]; 10 µM): 0.0172 | GR value ([5]; 0.001 µM): 0.912 GR | GR value ([5]; 0.003162 µM): 0.814 GR | GR value ([5]; 0.01 µM): 0.881 GR | GR value ([5]; 0.03162 µM): 0.801 GR | GR value ([5]; 0.1 µM): 0.812 GR | GR value ([5]; 0.3162 µM): 0.667 GR | GR value ([5]; 1 µM): 0.737 GR | GR value ([5]; 3.162 µM): 0.603 GR | GR value ([5]; 10 µM): 0.351 GR | GR value ([6]; 0.0001 µM): 0.988 GR | GR value ([6]; 0.0003162 µM): 0.993 GR | GR value ([6]; 0.001 µM): 0.995 GR | GR value ([6]; 0.003162 µM): 0.915 GR | GR value ([6]; 0.01 µM): 0.952 GR | GR value ([6]; 0.03162 µM): 0.988 GR | GR value ([6]; 0.1 µM): 0.935 GR | GR value ([6]; 0.3162 µM): 0.577 GR | GR value ([6]; 1 µM): -0.371 GR | GR value ([7]; 0.0003162 µM): 1.01 GR | GR value ([7]; 0.001 µM): 1.03 GR | GR value ([7]; 0.003162 µM): 0.972 GR | GR value ([7]; 0.01 µM): 1.02 GR | GR value ([7]; 0.03162 µM): 0.92 GR | GR value ([7]; 0.1 µM): 0.864 GR | GR value ([7]; 0.3162 µM): 0.741 GR | GR value ([7]; 1 µM): 0.757 GR | GR value ([7]; 3.162 µM): 0.733 GR | GR value ([8]; 0.0001 µM): 1.03 GR | GR value ([8]; 0.0003162 µM): 1.04 GR | GR value ([8]; 0.001 µM): 1.02 GR | GR value ([8]; 0.003162 µM): 0.969 GR | GR value ([8]; 0.01 µM): 1.02 GR | GR value ([8]; 0.03162 µM): 0.644 GR | GR value ([8]; 0.1 µM): -0.456 GR | GR value ([8]; 0.3162 µM): -0.359 GR | GR value ([8]; 1 µM): -0.434 GR | GR value ([9]; 0.001 µM): 0.927 GR | GR value ([9]; 0.003162 µM): 0.911 GR | GR value ([9]; 0.01 µM): 0.863 GR | GR value ([9]; 0.03162 µM): 0.788 GR | GR value ([9]; 0.1 µM): 0.838 GR | GR value ([9]; 0.3162 µM): 0.697 GR | GR value ([9]; 1 µM): 0.625 GR | GR value ([9]; 3.162 µM): 0.617 GR | GR value ([9]; 10 µM): 0.22 GR | GR value ([10]; 0.0001 µM): 1.03 GR | GR value ([10]; 0.0003162 µM): 1.02 GR | GR value ([10]; 0.001 µM): 0.935 GR | GR value ([10]; 0.003162 µM): 0.967 GR | GR value ([10]; 0.01 µM): 0.949 GR | GR value ([10]; 0.03162 µM): 0.915 GR | GR value ([10]; 0.1 µM): 0.816 GR | GR value ([10]; 0.3162 µM): 0.748 GR | GR value ([10]; 1 µM): -0.165 GR | GR value ([11]; 0.0003162 µM): 1.02 GR | GR value ([11]; 0.001 µM): 0.998 GR | GR value ([11]; 0.003162 µM): 1.03 GR | GR value ([11]; 0.01 µM): 1.02 GR | GR value ([11]; 0.03162 µM): 1.02 GR | GR value ([11]; 0.1 µM): 0.844 GR | GR value ([11]; 0.3162 µM): 0.719 GR | GR value ([11]; 1 µM): 0.637 GR | GR value ([11]; 3.162 µM): 0.489 GR | GR value ([12]; 0.001 µM): 0.95 GR | GR value ([12]; 0.003162 µM): 0.94 GR | GR value ([12]; 0.01 µM): 0.843 GR | GR value ([12]; 0.03162 µM): 0.604 GR | GR value ([12]; 0.1 µM): 0.461 GR | GR value ([12]; 0.3162 µM): 0.366 GR | GR value ([12]; 1 µM): 0.351 GR | GR value ([12]; 3.162 µM): 0.309 GR | GR value ([12]; 10 µM): 0.38 GR
